Data on 51 compounds can be found in patent US9422240B2, “Partially saturated nitrogen-containing heterocyclic compound” (TAISHO PHARMACEUTICAL CO., LTD, priority 2012, dated 2016).

The target in assay [1] is T1, human PHD2 (Homo sapiens (Human), UniProt Q9GZT9). The assay can be described thus: Test 1: human PHD2 inhibitory activity, [14C]-2-oxoglutarate to [14C]-succinic acid radiometric assay with HIF-1α peptide. In kind it is biochemical. Particulars: test compound's concentration 1 μM; Test 1, [14C]-2-oxoglutarate radiometric assay; read-out: Percent inhibition (% at 1 μM). The method in brief: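 Activity was measured by radiometric counting of [14C]-succinic acid formed during prolyl hydroxylation of a 19-mer HIF-1α peptide, after DNPH removal of residual [14C]-2-oxoglutarate. Baculovirus-expressed human PHD2 lysate (4 μg/well) reacted for 15 min at 37° C. Substrate-free and compound-free wells served as reference points for inhibition.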
T1 sequence (Q9GZT9 whole entry): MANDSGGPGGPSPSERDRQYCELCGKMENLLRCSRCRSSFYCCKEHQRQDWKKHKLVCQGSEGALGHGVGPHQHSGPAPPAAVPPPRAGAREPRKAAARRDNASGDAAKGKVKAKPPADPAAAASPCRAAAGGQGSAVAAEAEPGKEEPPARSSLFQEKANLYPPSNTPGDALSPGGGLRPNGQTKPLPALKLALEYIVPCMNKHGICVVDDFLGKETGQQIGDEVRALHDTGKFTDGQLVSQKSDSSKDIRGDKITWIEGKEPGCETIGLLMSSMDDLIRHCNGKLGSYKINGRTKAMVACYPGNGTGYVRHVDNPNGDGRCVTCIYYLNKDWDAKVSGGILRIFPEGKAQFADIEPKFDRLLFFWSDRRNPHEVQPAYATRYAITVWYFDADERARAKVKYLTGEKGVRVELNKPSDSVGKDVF

In assay [2] the target is T1, human PHD2. The assay can be described thus: Test 2: human PHD2 inhibitory activity, fluorescence polarization assay of HIF-1α peptide proline hydroxylation. In kind it is biochemical. The note with it: for inhibition at 1 µM: test compound's concentration 1 μM, Test 2, fluorescence polarization assay, read-out: Percent inhibition (% at 1 μM). The method in brief:
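A 19-mer HIF-1α peptide served as substrate, with the reaction started by 40 ng/well human PHD2 (cell lysate of NM_022051-transfected cells) and run 20 min at 30° C. before EDTA stop. Hydroxylated product bound anti-HIF-OH antibody, read by fluorescence polarization versus no-compound control.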

As to `COc1ccc(CN2C(=O)C(C(=O)NCC(=O)O)=C(O)CC2(C)C)cc1F` [Ex. 1-194], the inhibition at 1 µM at human PHD2 [1] amounted to 54%; on human PHD2 [2], 57%.
Regarding `COc1ccc(CN2C(=O)C(C(=O)NCC(=O)O)=C(O)CC2(C)C)cc1Cl` [Ex. 1-195], the inhibition at 1 µM was found to be 52% on human PHD2 [1] and 57% at human PHD2 [2].
Regarding `COc1ccc(CN2C(=O)C(C(=O)NCC(=O)O)=C(O)CC2(C)C)cc1C` [Ex. 1-196], the inhibition at 1 µM on human PHD2 [1] amounted to 41%; at human PHD2 [2] it was 48%.
The corresponding values for `CC(C)C1CN(Cc2ccc(C(F)(F)F)cc2)C(=O)C(C(=O)NCC(=O)O)=C1O` (stereo not shown) [Ex. 1-197] are 66% and 78%.
The corresponding values for `CC1(C)CC(O)=C(C(=O)NCC(=O)O)C(=O)N1Cc1ccc(OCC2CC2)cc1` [Ex. 1-198] are 70% and 79%.
The corresponding values for `Cc1cc(CN2C(=O)C(C(=O)NCC(=O)O)=C(O)CC2(C)C)ccc1OCC1CC1` [Ex. 1-199] are 65% and 75%.
As for `O=C(O)CNC(=O)C1=C(O)C2(CC2)CN(Cc2ccc(-c3ccccc3)cc2)C1=O` [Ex. 1-200], the inhibition at 1 µM at human PHD2 [1] is 98%; at human PHD2 [2], 99%.
Regarding `CC1(C)CC(O)=C(C(=O)NCC(=O)O)C(=O)N1Cc1ccc(OCCCC(F)(F)F)c(F)c1` [Ex. 1-201], the inhibition at 1 µM was found to be 67% on human PHD2 [1] and 73% on human PHD2 [2].
For `Cc1ccc(CN2C(=O)C(C(=O)NCC(=O)O)=C(O)CC2(C)C)cc1Cl` [Ex. 1-202], the inhibition at 1 µM on human PHD2 [1] was determined as 58%; on human PHD2 [2], 69%.
Turning to `CC1(C)CC(O)=C(C(=O)NCC(=O)O)C(=O)N1Cc1ccc(C2CC2)cc1` [Ex. 1-203], the inhibition at 1 µM at human PHD2 [1] was determined as 61%; on human PHD2 [2] it was 69%.
The corresponding values for `CC1(C)CC(O)=C(C(=O)NCC(=O)O)C(=O)N1Cc1ccc(OCC2CC2)c(F)c1` [Ex. 1-204] are 69% and 79%.
The corresponding values for `Cc1ccc(Oc2ccc(CN3C(=O)C(C(=O)NCC(=O)O)=C(O)CC3(C)C)cn2)cc1` [Ex. 1-206] are 95% and 93%.
In the case of `O=C(O)CNC(=O)C1=C(O)C2(CC2)CN(Cc2ccc(Br)cc2)C1=O` [Ex. 1-207], the values for the inhibition at 1 µM on human PHD2 [1] and on human PHD2 [2] were 92% and 93%, respectively.
The corresponding values for `O=C(O)CNC(=O)C1=C(O)C2(CC2)CN(Cc2ccc(OC(F)(F)F)cc2)C1=O` [Ex. 1-208] are 90% and 85%.
The corresponding values for `CC1CC(O)=C(C(=O)NCC(=O)O)C(=O)N1C1(c2ccc(C(F)(F)F)cc2)CC1` (stereo not shown) [Ex. 1-210] are 59% and 42%.
On to `CC1(C)CC(O)=C(C(=O)NCC(=O)O)C(=O)N1Cc1ccc(C2CCC2)cc1` [Ex. 1-211], for which the inhibition at 1 µM stood at 76% on human PHD2 [1] and 79% at human PHD2 [2].
In the case of `O=C(O)CNC(=O)C1=C(O)CCN(Cc2ccc(C3CC3)c(C(F)(F)F)c2)C1=O` [Ex. 1-212], the results for the inhibition at 1 µM at human PHD2 [1] and on human PHD2 [2] were 82% and 85%, respectively.
Take `CC1(C)CC(O)=C(C(=O)NCC(=O)O)C(=O)N1Cc1cc(-c2ccc(Cl)cc2)no1` [Ex. 1-213]: the inhibition at 1 µM at human PHD2 [1] and on human PHD2 [2] was 88% in each case.
As to `O=C(O)CNC(=O)C1=C(O)C2(CC2)CN(Cc2ccc(C3CC3)cc2)C1=O` [Ex. 1-214], the values for the inhibition at 1 µM on human PHD2 [1] and on human PHD2 [2] were 89% and 90%, respectively.
As to `O=C(O)CNC(=O)C1=C(O)C2(CC2)CN(Cc2ccc(Cl)cc2)C1=O` [Ex. 1-215], the inhibition at 1 µM at human PHD2 [1] worked out at 85%; at human PHD2 [2], 86%.
The corresponding values for `CC1(C)CC(O)=C(C(=O)NCC(=O)O)C(=O)N1Cc1cc(-c2ccc(Cl)cc2)on1` [Ex. 1-216] are 75% and 73%.
The corresponding values for `CC1(C)CC(O)=C(C(=O)NCC(=O)O)C(=O)N1CC1CC(c2ccccc2)C1` (stereo not shown) [Ex. 1-217] are 52% and 60%.
The corresponding values for `CC1(C)CC(O)=C(C(=O)NCC(=O)O)C(=O)N1C[C@H]1C[C@@H](c2ccccc2)C1` [Ex. 1-218] are 52% and 62%.
In the case of `O=C(O)CNC(=O)C1=C(O)CCN(C2(c3ccc(-c4ccccc4)cc3)CC2)C1=O` [Ex. 1-219], the results for the inhibition at 1 µM at human PHD2 [1] and at human PHD2 [2] were 69% and 88%, respectively.
The corresponding values for `O=C(O)CNC(=O)C1=C(O)CCN(C2CCC(Cc3ccccc3)CC2)C1=O` (stereo not shown) [Ex. 1-220] are 72% and 82%.
On to `CC1(C)CC(O)=C(C(=O)NCC(=O)O)C(=O)N1Cc1ccc(OCC(F)(F)F)cc1` [Ex. 1-221], for which the inhibition at 1 µM at human PHD2 [1] stood at 66%; at human PHD2 [2], 73%.
Regarding `O=C(O)CNC(=O)C1=C(O)CCN(Cc2ccc(OCC(F)(F)F)c(Cl)c2)C1=O` [Ex. 1-222], the inhibition at 1 µM stood at 90% on human PHD2 [1] and 89% at human PHD2 [2].
The corresponding values for `O=C(O)CNC(=O)C1=C(O)CC2(CC2)N(Cc2ccc(-c3ccccc3)cc2)C1=O` [Ex. 1-223] are 90% and 96%.
`O=C(O)CNC(=O)C1=C(O)CC2(CC2)N(Cc2ccc(C(F)(F)F)cc2)C1=O` [Ex. 1-224]: the inhibition at 1 µM at human PHD2 [1] is 80%; at human PHD2 [2] it was 90%.
As for `N#Cc1ccc(Oc2ccc(CN3CCC(O)=C(C(=O)NCC(=O)O)C3=O)cn2)cc1` [Ex. 1-225], the inhibition at 1 µM on human PHD2 [1] stood at 100%; on human PHD2 [2] it was 98%. This compound also had an IC50 on human PHD2 [2] (human PHD2, fluorescence polarization assay, 20-min incubation at 30° C.) of 40 nM.
For `CCCOc1ccc(CN2C(=O)C(C(=O)NCC(=O)O)=C(O)CC2(C)C)cc1` [Ex. 1-227], the inhibition at 1 µM at human PHD2 [1] came to 76%; on human PHD2 [2], 75%.
The corresponding values for `CC(C)Oc1ccc(CN2C(=O)C(C(=O)NCC(=O)O)=C(O)CC2(C)C)cc1` [Ex. 1-228] are 71% and 64%.
With `CC1(C)CC(O)=C(C(=O)NCC(=O)O)C(=O)N1C[C@H]1C[C@@H]1c1ccccc1` [Ex. 1-229], the inhibition at 1 µM at human PHD2 [1] came out at 74%; at human PHD2 [2] it was 60%.
As for `CC(c1ccc(-c2ccccc2)cc1)N1CCC(O)=C(C(=O)NCC(=O)O)C1=O` (stereo not shown) [Ex. 1-230], the inhibition at 1 µM amounted to 96% at human PHD2 [1] and 95% on human PHD2 [2].
Turning to `CC(C)(c1ccc(C(F)(F)F)cc1)N1CCC(O)=C(C(=O)NCC(=O)O)C1=O` [Ex. 1-231], the inhibition at 1 µM at human PHD2 [1] turned out to be 65%; on human PHD2 [2], 44%.
The corresponding values for `CC(C)(C)COCc1ccc(CN2CCC(O)=C(C(=O)NCC(=O)O)C2=O)cc1` [Ex. 1-232] are 89% and 91%.
For the compound `CC1(COCc2ccc(CN3CCC(O)=C(C(=O)NCC(=O)O)C3=O)cc2)CC1` [Ex. 1-233], the values for the inhibition at 1 µM on human PHD2 [1] and at human PHD2 [2] were 91% and 93%, respectively.
The corresponding values for `CCOc1ccc(CN2C(=O)C(C(=O)NCC(=O)O)=C(O)CC2(C)C)cc1` [Ex. 1-234] are 61% and 62%.
The corresponding values for `O=C(O)CNC(=O)C1=C(O)CC2(CCC2)N(Cc2ccc(C3CC3)cc2)C1=O` [Ex. 1-236] are 84% and 87%.
Consider `O=C(O)CNC(=O)C1=C(O)C2(CCC2)CN(Cc2ccc(C3CC3)cc2)C1=O` [Ex. 1-237], for which the results for the inhibition at 1 µM on human PHD2 [1] and on human PHD2 [2] were 74% and 84%, respectively.
As for `O=C(O)CNC(=O)C1=C(O)CCN(Cc2ccc(OCC3CCC3)cc2)C1=O` [Ex. 1-238], the inhibition at 1 µM came out at 92% on human PHD2 [1] and 99% at human PHD2 [2].
Take `CC1(C)CC(O)=C(C(=O)NCC(=O)O)C(=O)N1Cc1ccc(OCC2CCC2)cc1` [Ex. 1-239]: the inhibition at 1 µM on human PHD2 [1] stood at 74%; on human PHD2 [2] it was 87%.
The corresponding values for `O=C(O)CNC(=O)C1=C(O)CCN(Cc2ccc(OCc3ccccc3)cc2)C1=O` [Ex. 1-240] are 91% and 97%.
On to `O=C(O)CNC(=O)C1=C(O)CCN(Cc2ccc(OCc3ccc(F)cc3)cc2)C1=O` [Ex. 1-241], for which the inhibition at 1 µM at human PHD2 [1] stood at 97%; at human PHD2 [2], 101%.
On to `O=C(O)CNC(=O)C1=C(O)CCN(Cc2ccc(OCc3ccc(Cl)cc3)cc2)C1=O` [Ex. 1-242], for which the results for the inhibition at 1 µM on human PHD2 [1] and at human PHD2 [2] were 100% and 101%, respectively.
With `O=C(O)CNC(=O)C1=C(O)CCN(Cc2ccc(C3CCC3)c(C(F)(F)F)c2)C1=O` [Ex. 1-243], the figures for the inhibition at 1 µM on human PHD2 [1] and at human PHD2 [2] were 76% and 92%, respectively.
Take `CC1(C)CC(O)=C(C(=O)NCC(=O)O)C(=O)N1C[C@@H]1C[C@@H]1c1ccccc1` [Ex. 1-244]: the inhibition at 1 µM at human PHD2 [1] was 47%; on human PHD2 [2] it was 50%.
The corresponding values for `O=C(O)CNC(=O)C1=C(O)CCN(Cc2ccc(C(F)(F)F)c(C3CCC3)c2)C1=O` [Ex. 1-245] are 80% and 78%.
The corresponding values for `CC1(C)CC(O)=C(C(=O)NCC(=O)O)C(=O)N1Cc1ccc(OCCC2CC2)cc1` [Ex. 1-247] are 81% and 82%.
`O=C(O)CNC(=O)C1=C(O)CCN(Cc2ccc(CCC3CC3)cc2)C1=O` [Ex. 1-249]: the values for the inhibition at 1 µM at human PHD2 [1] and at human PHD2 [2] were 103% and 94%, respectively.
`O=C(O)CNC(=O)C1=C(O)C2(CCC2)CN(Cc2ccc(OCC3CC3)cc2)C1=O` [Ex. 1-250]: the inhibition at 1 µM at human PHD2 [1] was 80%; on human PHD2 [2] it was 81%.
